Test results published in patent US8017350B2, “Glimepiride- and insulin-induced glycosylphosphatidylinositol-specific phospholipase C regulation” (Sanofi-Aventis Deutschland GmbH, priority 2004, dated 2011).

Legend:
[1] = system: pp59Lyn and Gce1 / caveolin-1 in hcDIGs of rat adipocytes; test: Dissociation of pp59Lyn and Gce1 from caveolin-1; format: cell-based; settings: Adipocyte, FIG. 6 Panel B, read-out: IC50 for abrogation of losses from caveolin-1 immunoprecipitates
Description: Solubilized DIGs (see above, 5-20 μg protein) were precleared by incubation with protein A/G-Sepharose and subsequent centrifugation (10,000×g, 5 min). The supernatant was incubated with anti-caveolin-1 antibodies (1:1000) preadsorbed on protein A/G-Sepharose in 1 ml of 10 mM Tris/HCl (pH 7.4), 150 mM NaCl, 1% TX-100 for 1 h at 4° C. The immune complexes were washed twice with the same buffer and then twice with buffer lacking TX-100 and finally subjected to SDS-PAGE performed in the absence of β-mercaptoethanol. The recovery of immunoprecipitated caveolin was normalized by homologous immunoblotting with anti-caveolin antibodies of the same blot following stripping of the membrane.
Next we investigated the putative causal relationship between dissociation from caveolin/activation and stimulus-dependent lipolytic cleavage of GPI-proteins in rat adipocytes by inhibiting GPI-PLC and subsequent analysis of the interaction with caveolin-1 of Gce1 and pp59^Lyn as well as kinase activity of the latter (FIG. 6). […] This potency is similar to GPI-PLC inhibition by GPI-2350 in intact adipocytes (FIG. 3). […]

PI-PLC (B. cereus) = biological target: T1, PI-PLC (B. cereus) (Bacillus cereus, UniProt P14262); test: PI-PLC (B. cereus) assay, AChE substrate, TX-114 partitioning; format: biochemical
T1 construct: purchased SigmalAldrich (Deisenhofen, Germany)
T1 sequence (P14262 32-329 limits assumed): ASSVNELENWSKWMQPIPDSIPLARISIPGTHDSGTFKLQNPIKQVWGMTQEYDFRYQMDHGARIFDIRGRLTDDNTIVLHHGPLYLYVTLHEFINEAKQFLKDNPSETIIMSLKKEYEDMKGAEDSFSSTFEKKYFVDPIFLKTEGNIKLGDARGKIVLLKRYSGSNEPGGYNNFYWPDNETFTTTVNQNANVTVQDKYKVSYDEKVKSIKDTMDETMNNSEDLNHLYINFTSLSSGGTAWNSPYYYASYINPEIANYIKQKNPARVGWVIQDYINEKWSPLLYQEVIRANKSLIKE
Description: GPI-PLD (rat serum) was assayed according to “Hari et al. (1997) Biochim. Biophys. Acta 1355: 293-302” by incubation with 10 μl of human placental aP solution (100 U/ml in 10 mM Hepes/NaOH, pH 7.0, 150 mM NaCl) in 100 μl of 200 mM Tris/maleate (pH 7.0) and 1% Nonidet P-40 for 10 min at 37° C. and subsequent termination of the reaction by addition of 0.4 ml of ice-cold stop buffer (10 mM Hepes/NaOH, pH 7.0, 150 mM NaCl, 0.1 mM MgCl2 and 0.01 mM zinc acetate). GPI-PLC (T. brucei) was assayed as described in “Mensa-Wilmot et al. (1995) Methods Enzymol. 250: 641-655” by incubation with 5 μl of human placental aP solution (see above) in 50 μl of 50 mM Tris/HCl (pH 8.0), 0.25% Nonidet P-40 and 5 mM EDTA for 30 min at 37° C. and subsequent termination of the reaction by addition of 0.45 ml of stop buffer. PI-PLC (B. cereus) and adipocyte GPI-PLC (5-25 μg plasma membranes or hc/lcDIGs) were assayed by incubation with 10 μl of bovine erythrocyte acetylcholinesterase (AChE) solution (12 U/ml in 10 mM Tris/HCl, pH 7.4, 144 mM NaCl, 0.1% TX-100) in 100 μl of 20 mM Hepes/KOH (pH 7.8), 144 mM NaCl, 0.1% TX-100, 0.2 mM MgCl2 for 1 h at 25° C. and subsequent termination by adding 5 μl of glacial acetic acid and then 0.4 ml of 10 mM Tris/HCl (pH 7.4), 144 mM NaCl. Each reaction mixture was subjected to TX-114 partitioning (see below).
Pelleted hc/lcDIGs (10-50 μg protein) or (G)PI-PLC reaction mixtures (0.5 ml) were separated into amphiphilic and hydrophilic proteins using partitioning between TX-114-enriched and depleted phases according to “Bordier, C., (1981) J. Biol, Chem. […]” by suspending in 1 ml of ice-cold TX-114 (1%), 25 mM Tris/HCl (pH 7.4), 144 mM NaCl or mixing with 0.5 ml of ice-cold TX-114 (2%), respectively. After incubation for 1 h on ice, the mixture was layered onto a cushion of 0.4 ml of 0.25 M sucrose and 25 mM Tris/HCl (pH 7.4) on ice. Phase separation was induced by warming up to 37° C. and subsequent centrifugation (10,000×g, 1 min). After re-extraction of the lower TX-114-enriched phase, aliquots of the pooled upper TX-114-depleted phase were measured for 5′-Nuc, aP and AChE activity or precipitated (15 polyethylene glycol 4000) for SDS-PAGE analysis.
Table 1: GPI-PLC of hcDIGs from rat adipocytes, GPI-PLC from T. brucei and PI-PLC from B. cereus were incubated with solubilized and partially purified bovine erythrocyte AChE or human placental aP in the absence or presence of increasing concentrations (0.05 μM-1 mM) of the inhibitors indicated under appropriate conditions (see Materials and Methods). Cleavage rate was calculated from the amount of hydrophilic AChE and aP activity recovered with the TX-114-depleted phase upon TX-114 partitioning. Means+SD from at least 3 independent incubations with partitioning/enzyme assays in quadruplicate are given. n.a., not applicable.
Purified (G)PI-PLC/D from B. cereus, rat serum and T. brucei as well as total plasma membranes (PM) and hc/lcDIGs prepared from isolated rat adipocytes were incubated (10 min, 30° C.) with increasing concentrations of GPI-2350 and then assayed for amphiphilic-to-hydrophilic conversion of AChE and aP by TX-114 partitioning (see Materials and Methods). The lipolytic activity was calculated as % of the control reaction in the absence of GPI-2350 (set at 100%). Means+SD of at least 4 independent incubations with AChE and aP activity measurements in triplicate each are given.

**Q.** Which IC50 [1] does the source give for `CCCCCCCCCCCCP1(=O)O[C@@H]2[C@H](O)[C@@H](O)[C@H](O)[C@@H](O)[C@@H]2O1` (some centres unmarked) [GPI-2350, myo-inositol-1,2-cyclo-dodecylphosphonic acid] here?
**A.** Its IC50 is 5 to 10 µM.

**Q.** What about the IC50 (PI-PLC (B. cereus); IC50, Table 1, inhibitor 0.05 μM-1 mM) of the same compound?
**A.** The IC50 was 10 to 20 µM.

**Q.** What about the IC50 (PI-PLC (B. cereus); apparent IC50, FIG. 2) of the same compound?
**A.** Its IC50 is 10 µM.

**Q.** And the inhibition at 1000 µM (PI-PLC (B. cereus); read-out: inhibition % at 1 mM)?
**A.** The inhibition at 1000 µM was 75%.

**Q.** And the “reversal of half-maximal inhibition” value (PI-PLC (B. cereus); upon 10-fold dilution with excess of fresh GPI-protein substrate)?
**A.** The value was “completely reversed”.
